In US7037939B2, “Compound and derivative of gabapentin” (Industrial Technology Research Institue, priority 2002, dated 2006):

Columns and labels:
Caco-2 cell = assay: Caco-2 monolayer cell transmission rate (in vitro intestinal absorption model); assay type: in vitro ADME, human
Source text: The common use of the activity selection model for the in vitro intestinal absorption comprises: (1) Carcinoms (Caco-2); (2) Using Chamber; (3) Everted Gut Sac. Basically, there is no difference for those three drug-activity-selection models when they are used for evaluating the activity selection. However, in terms of the cell source from human, a cell line is predominant. Moreover, with the cellular metabolism being similar to human intestines, Caco-2 becomes an excellent tool in the study of intestine absorption. Therefore, in the comparison of the in vitro transmission rate between gabapentin and gabapentin derivatives, the Caco-2 system is still the favorable model.
The research for studying gabapentin and the derivatives thereof in the present invention includes: Caco-2 cell activation, Caco-2 monolayer cell cultivation, resistance value measurement, effect of time to gabapentin transmission rate, and comparison of transmission rate between gabapentin and gabapentin derivatives. In constructing the Caco-2 monolayer, the original cell line is the human colon adenocarcinoma cell (Caco-2), and its data sheet is listed as Table 2.
The Caco-2 cell is activated appropriately, and seeded in the transwell at 37° C. in an amount of about 1×10^5. The aliquot is cultivated in 5% CO2 at 37° C. and replaced with a fresh medium every 3 to 4 days, and then the monolayer cell is obtained by the 21 days cultivation. The integrity of the Caco-2 cell is further characterized by tissue section and resistance value measurement.
HPLC Analysis: Intersil ODS-3V 250*4.6 mm column, Solvent: MeOH/H2O=10:90 to 70:30 with 0.1% of NH4OAc, Flow rate=1.0 ml/min, ELSD: Evaporative Light Scattering Detector. Every derivative has been repeated for 3 times in analysis, 4 hr later, the sample is analyzed for the transmission rate and then averaged to account its transmission fold.

[1] = Oral drug absorption test in rats: gabapentin concentration in blood/serum by LC/MS/MS; assay type: in vivo, rat; details: 300 mg/kg, ratio of AUC to Gabapentin HCl
Experimental: Rats (3 male, Winstar rats) are fed with 300 mg/kg dosage of compounds. Plural blood samples are collected at different times (0, 0.5, 1, 2, 3, 8, 12, 24 hrs). The blood samples are centrifuged, and the concentration of gabapentin in the serum are analyzed with LC/MS/MS (MRM method, limitation of instruments 0.005 μg/mL).
After reducing the dosage, compounds of gabapentin prodrugs were selected for further pharmacodynamic analysis. The rats are fed with 50 mg/kg dosage of gabapentin equivalency individually.

[2] = Caco-2 monolayer, 4 h, mean of 3 repeats, HPLC-ELSD
[3] = ratio of Caco-2 transmission rate to GBP.HCl, 4 h

| Compound | Caco-2 Cell Mean Total Transmission rate 4 h (%) (Caco-2 cell; human, Caco-2, 4 h) | gbp-prodrug/gbp Transmission Fold (Caco-2 cell; human, Caco-2, 4 h) | AUC value relative to Gabapentin HCl [1] | Caco-2 Cell Mean Total Transmission rate 4 h (%) (Caco-2 cell; [2]) | gbp-prodrug/gbp Transmission Fold (Caco-2 cell; [3]) |
| --- | --- | --- | --- | --- | --- |
| CCOC(=O)CC1(CNC(=O)CC2(CN)CCCCC2)CCCCC1 [Embodiment 2, (1-{[2-(1-Aminomethyl-cyclohexyl)-acetylamino]-methyl}-cyclohexyl)-acetic acid ethyl ester] | 10.25% | 9.3 Fold | 14.9 times |  |  |
| CCOC(=O)CC1(CNC(=O)C(N)c2ccccc2)CCCCC1 (stereo not drawn) [Embodiment 30, {1-[(2-Amino-2-phenyl-acetylamino)-methyl]-cyclohexyl}-acetic acid ethyl ester] | 11.87% | 10.8 Fold |  |  |  |
| CCOC(=O)CC1(CNC(=O)C(N)CCc2ccccc2)CCCCC1 (stereo not drawn) [Embodiment 31, {1-[(2-Amino-4-phenyl-butyrylamino)-methyl]-cyclohexyl}-acetic acid ethyl ester] | 12.30% | 11.2 Fold |  |  |  |
| CCOC(=O)CC1(CNC(=O)C(N)CCc2ccccc2)CCCCC1 (stereo not drawn) [Embodiment 32, {1-[(2-Amino-4-phenyl-butyrylamino)-methyl]-cyclohexyl}-acetic acid ethyl ester] | 1.76% | 1.6 Fold |  |  |  |
| CCOC(=O)CC1(CNC(=O)C(N)c2cc3ccccc3[nH]2)CCCCC1 (stereo not drawn) [Embodiment 33, (1-{[2-Amino-2-(1H-indol-2-yl)-acetylamino]-methyl}-cyclohexyl)-acetic acid ethyl ester] |  |  |  | 9.97% | 9.1 Fold |
| CCOC(=O)CC1(CNC(=O)C2CSCN2)CCCCC1 (stereo not drawn) [Embodiment 34, (1-{[(Thiazolidine-4-carbonyl)-amino]-methyl}-cyclohexyl)-acetic acid ethyl ester] | 4.50% | 4.1 Fold |  |  |  |
| CCOC(=O)CC1(CNC(=O)C(N)c2ccc(O)cc2)CCCCC1 (stereo not drawn) [Embodiment 35, (1-{[2-Amino-2-(4-hydroxy-phenyl)-acetylamino]-methyl}-cyclohexyl)-acetic acid ethyl ester] | 10.33% | 9.4 Fold |  |  |  |
| CCOC(=O)CC1(CNC(=O)CCNC(=O)c2cccnc2)CCCCC1 [Embodiment 36, [1-({3-[(Pyridine-3-carbonyl)-amino]-propionylamino}-methyl)-cyclohexyl]-acetic acid ethyl ester] |  |  |  | 9.00% | 8.2 Fold |
| CCOC(=O)CC1(CNC(=O)C2CSCN2C(=O)OC(C)(C)C)CCCCC1 (stereo not drawn) [Embodiment 37, 4-[(1-Ethoxycarbonylmethyl-cyclohexylmethyl)-carbamoyl]-thiazolidine-3-carboxylic acid tert-butyl ester] |  |  |  | 6.13% | 5.6 Fold |
| CCOC(=O)CC1(CNC(=O)C(NC(=O)OC(C)(C)C)c2ccc(O)cc2)CCCCC1 (stereo not drawn) [Embodiment 38, (1-{[2-tert-Butoxycarbonylamino-2-(4-hydroxy-phenyl)-acetylamino]-methyl}-cyclohexyl)-acetic acid ethyl ester] |  |  |  | 5.05% | 4.6 Fold |
